pIC50: −log10 of the molar value.
Columns and labels:
Type in all cases: cell-based
LoVo cells = assay: LoVo Cell Growth Inhibition Test (MTT Assay); settings: Homo sapiens, 72 h incubation
Outline: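 Human LoVo intestinal cancer cells, 3000-4000 per well, were treated with compound for 72 h at 37° C, 5% CO2. Growth was measured by MTT (0.5 mg/ml, 4 h), DMSO-solubilised, OD 490 nm; IC50 is the concentration giving 50% inhibition.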

NCI-N87 cells = assay: NCI-N87 Cell Growth Inhibition Test (MTT Assay); settings: Homo sapiens, 72 h incubation
Outline: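 Human gastric carcinoma NCI-N87 cells at 17000 cells/well were exposed to compound for 72 h at 37° C, 5% CO2. MTT at 0.5 mg/ml in serum-free medium for 3 h, DMSO solubilisation, OD at 490 nm. Inhibition ratio = (PC−n)/(PC−NC)×100%; IC50 was fitted as 50% inhibition.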

Sk-Br-3 cells = assay: Sk-Br-3 Cell Growth Inhibition Test (SRB Assay); settings: Homo sapiens, 91 h incubation
Procedure: Sk-Br-3 Cell Growth Inhibition Test (SRB Assay)
1. Cell strains: Sk-Br-3 (human breast cancer cell strains);
2. SRB: available from Sigmaaldrich, goods number: S9012, lot number: 047K3751. SRB was reserved at the room temperature. 0.4% (w/v) of working solution was formulated with 1% of glacial acetic acid. The solution was reserved at 4° C.; anti-tumor compounds; DMSO
Culture medium: 90% DMEM+10% FBS;
1. A plate (10 cm) of cells in logarithmic growth phase normally cultured was collected. The culture solution was sucked out. The plate was washed with 5 mL of PBS 1-2 times;
2. PBS was sucked out. […] of 0.25% pancreatin was added to infiltrate the cells for 30 s;
3. The pancreatin was sucked out. The culture plate was placed in an incubator. Digestion was carried out for about 1.5-2 min at 37° C.;
4. 4 mL of complete culture solution was added to the culture plate to stop the digestion. The cells were carefully scoured with micropipette (1 ml) to give a uniform single cell suspension;
5. Cell suspension was counted. The suspension was diluted to 1×10^5/ml. The resulting suspension was developed uniformly on a plate by 10000 cells/100 μl per well. The culture plate was incubated overnight under 5% CO2 at 37° C. In day 2, 100 μl of culture solution comprising a compound was added in each well, and further incubated for 91 h under 5% CO2 at 37° C.
6. The culture solution was sucked out. 100 uL of TCA fixed cells which were diluted to 10% were added to each well. The plate was kept in a refrigerator for 1 h at 4° C.
7. TCA stationary liquid was sucked out. Each well was washed with 150 μL of ddH2O five times;
8. After the stationary liquid was cleansed, the plate was dried in the air at the room temperature;
9. 60 μL of SRB staining solution was added in each well. The well was stained for 15 min at the room temperature;
10. The SRB staining solution was sucked out. Each well was washed with 150 μL of 1% glacial acetic acid five times;
11. After the SRB staining solution was cleansed, the plate was dried in the air at the room temperature;
12. 100 μL of 10 mM Tris was added in each well. The plate was vibrated to dissolve out SRB;
13. OD values were determined at 570 nM.
To: OD values of the starting content of cells when the cells were developed on a plate;
PC: OD values of cells after normal growth in control wells without a compound;
Ti: OD values of cells after growth in test wells with a compound;
NC: Background OD values of blank well without a compound and cells
Therefore: Ratio of cells in test wells to normal wells (% of control cell growth)=(Ti−To)/(PC−To)×100%
Ratio GI50 was concentration of a compound at the point of 50%.
Therefore: Ratio of killed cells to inoculated cells (% of killed cells)=(Ti−To)/(To−NC)×100%
LC50 was concentration point of a compound when half of the starting inoculated concentration was reached.
Concentration of a compound at this point is defined as TGI (total growth inhibition).

Row | Compound | pIC50 (LoVo cells) | pIC50 (NCI-N87 cells) | GI50 (Sk-Br-3 cells) [nM]
1 | CN(C)C/C=C/C(=O)Nc1cc2c(Nc3ccc(F)c(Cl)c3)c(C#N)cnc2cc1OC1CCOC1 (stereo not drawn) [Example 4, (E)-N-(4-(3-CHLORO-4-FLUOROPHENYLAMINO)-3-CYANO-7-(TETRAHYDROFURAN-3-YL-OXY)QUINOLIN-6-YL)-4-(DIMETHYLAMINO)-BUT-2-ENAMIDE] | 5.10 | 7.10 | 148
2 | C#Cc1cccc(Nc2c(C#N)cnc3cc(O[C@@H]4CCOC4)c(NC(=O)/C=C/CN(C)C)cc23)c1 [Example 141, (R,E)-N-(3-CYANO-4-(3-ETHYNYLPHENYLAMINO)-7-(TETRAHYDROFURAN-3-YL-OXY)QUINOLIN-6-YL)-4-(DIMETHYLAMINO)-BUT-2-ENAMIDE] | 5.12 | 7.49 | 39
3 | CN(C)C/C=C/C(=O)Nc1cc2c(Nc3ccc(F)c(Cl)c3)c(C#N)cnc2cc1O[C@H]1CCOC1 [Example 142, (S,E)-N-(4-(3-CHLORO-4-FLUOROPHENYLAMINO)-3-CYANO-7-(TETRAHYDROFURAN-3-YL-OXY)QUINOLIN-6-YL)-4-(DIMETHYLAMINO)-BUT-2-ENAMIDE] | 5.05 | 7.12 | 117

Second part, led by results:

Row | pIC50 (LoVo cells) | Compound | pIC50 (NCI-N87 cells) | GI50 (Sk-Br-3 cells) [nM]
4 | 5.70 | Cc1ccc(COc2ccc(Nc3c(C#N)cnc4cc(OC5CCOC5)c(NC(=O)/C=C/CN(C)C)cc34)cc2Cl)cc1 (stereo not drawn) [Example 19, (E)-N-(4-(4-(4-METHYLBENZYLOXY)-3-CHLOROPHENYLAMINO)-3-CYANO-7-(TETRAHYDROFURAN-3-YL-OXY)QUINOLIN-6-YL)-4-(DIMETHYLAMINO)-BUT-2-ENAMIDE] | 7.49 | 63
5 | 5.15 | CN(C)C/C=C/C(=O)Nc1cc2c(Nc3cccc(Br)c3)c(C#N)cnc2cc1OC1CCOC1 (stereo not drawn) [Example 7, (E)-N-(4-(3-BROMOPHENYLAMINO)-3-CYANO-7-(TETRAHYDROFURAN-3-YL-OXY)QUINOLIN-6-YL)-4-(DIMETHYLAMINO)-BUT-2-ENAMIDE] | 6.95 | 213
6 | 5.48 | C#Cc1cccc(Nc2c(C#N)cnc3cc(O[C@H]4CCOC4)c(NC(=O)/C=C/CN4CCCCC4)cc23)c1 [Example 144, (S,E)-N-(3-CYANO-4-(3-ETHYNYLPHENYLAMINO)-7-(TETRAHYDROFURAN-3-YL-OXY)QUINOLIN-6-YL)-4-(PIPERIDIN-1-YL)-BUT-2-ENAMIDE] | 7.01 | 202
7 | 5.64 | C#Cc1cccc(Nc2c(C#N)cnc3cc(O[C@H]4CCOC4)c(NC(=O)/C=C/CN(C)Cc4ccccc4)cc23)c1 [Example 149, (S,E)-N-(3-CYANO-4-(3-ETHYNYLPHENYLAMINO)-7-(TETRAHYDROFURAN-3-YL-OXY)QUINOLIN-6-YL)-4-(N-METHYLBENZYLAMINO)-BUT-2-ENAMIDE] | 6.95 | 644
8 | 5.12 | C#Cc1cccc(Nc2c(C#N)cnc3cc(O[C@H]4CCOC4)c(NC(=O)/C=C/CN(CC)CC)cc23)c1 [Example 143, (S,E)-N-(3-CYANO-4-(3-ETHYNYLPHENYLAMINO)-7-(TETRAHYDROFURAN-3-YL-OXY)QUINOLIN-6-YL)-4-(DIETHYLAMINO)-BUT-2-ENAMIDE] | 7.05 | 231

From patent publication US9187458B2, “Cyanoquinoline derivatives” (Tianjin Hemay Bio-Tech Co., LTD., priority 2010, dated 2015)
